From ChEMBL document CHEMBL1201862, “PubChem BioAssay data set” (2004)
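Grown in 96-well plates, cells were treated for 48 hours with each compound at five concentrations. Insufficient inhibition: endpoint recorded as highest concentration tested. GI50 = concentration required for 50% inhibition of growth.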 Calls of active or inactive are those of the source. Rule as the data show it: active = GI50 up to about 1.1 µM and inactive = higher.

What was measured:
Assay in all cases: growth of human tumour cells (NCI), 48 h
[1] = tested on: HL-60
[2] = tested on: OVCAR-5
[3] = tested on: A549
[4] = tested on: SF-539
[5] = tested on: HT-29
[6] = tested on: SK-MEL-2
[7] = tested on: U-251
[8] = tested on: SF-295
[9] = tested on: SF-268
[10] = tested on: CAKI-1
[11] = tested on: HOP-62
[12] = tested on: NCI-H226
[13] = tested on: A498
[14] = tested on: SNB-19
[15] = tested on: DU-145
[16] = tested on: UACC-62
[17] = tested on: HOP-92

| Compound | GI50 [1] | GI50 [2] | GI50 [3] | GI50 [4] | GI50 [5] | GI50 [6] | GI50 [7] | GI50 [8] | GI50 [9] | GI50 [10] | GI50 [11] | GI50 [12] | GI50 [13] | GI50 [14] | GI50 [15] | GI50 [16] | GI50 [17] |
| --- | --- | --- | --- | --- | --- | --- | --- | --- | --- | --- | --- | --- | --- | --- | --- | --- | --- |
| COC(=O)c1ccccc1CC(Cc1ccccc1)C(=O)OC (configuration not stated) | 18.5 µM (inactive) | 62.7 µM (inactive) | 61.9 µM (inactive) | > 100 µM (inactive) | 55.5 µM (inactive) | 36.8 µM (inactive) | 30.8 µM (inactive) | > 100 µM (inactive) | 20.3 µM (inactive) | 83.4 µM (inactive) | > 100 µM (inactive) | 43.1 µM (inactive) | 92.5 µM (inactive) | 68.4 µM (inactive) | > 100 µM (inactive) |  |  |
| COc1ccc(S(=O)(=O)c2nnc(S(=O)(=O)Cc3ccccc3)s2)cc1 |  | 25.8 µM (inactive) | 20.8 µM (inactive) | 12 µM (inactive) | 17.9 µM (inactive) | 18.3 µM (inactive) | 19.5 µM (inactive) | 33.3 µM (inactive) | 33.7 µM (inactive) | 17.5 µM (inactive) | 30.3 µM (inactive) |  | 18.6 µM (inactive) | 20.8 µM (inactive) | 17 µM (inactive) |  |  |
| CCCCNC(=O)c1cc(S(=O)(=O)n2ccnc2O)c(SC)cc1Cl | > 100 µM (inactive) | > 100 µM (inactive) | > 100 µM (inactive) | > 100 µM (inactive) | > 100 µM (inactive) | > 100 µM (inactive) | > 100 µM (inactive) | > 100 µM (inactive) | > 10 µM (inactive) | > 100 µM (inactive) | > 100 µM (inactive) |  | 26.1 µM (inactive) | > 100 µM (inactive) | > 100 µM (inactive) | > 100 µM (inactive) |  |
| c1ccc2c(c1)CC1c3[nH]c4ccccc4c3CCN21 (configuration not stated) | > 10 µM (inactive) | > 10 µM (inactive) | > 10 µM (inactive) | > 10 µM (inactive) | > 10 µM (inactive) | > 10 µM (inactive) | > 10 µM (inactive) | > 10 µM (inactive) | > 10 µM (inactive) | > 10 µM (inactive) | > 10 µM (inactive) | > 10 µM (inactive) |  | > 10 µM (inactive) | > 10 µM (inactive) | > 10 µM (inactive) | > 10 µM (inactive) |
| Cc1ccc(-c2ccc(Nc3c4ccccc4nc4ccccc34)cc2)cn1 |  | 19.5 µM (inactive) | 2.3 µM (inactive) | 3.85 µM (inactive) | 2.13 µM (inactive) | 1.87 µM (inactive) |  | 2.37 µM (inactive) | 8.75 µM (inactive) | 2.72 µM (inactive) | 1.82 µM (inactive) |  |  | 5.86 µM (inactive) | 3.77 µM (inactive) | 3.08 µM (inactive) | 0.322 µM (active) |
| CN1CCN(c2ccc3nc(C4=C(O)C(=O)[C@@H]5C(=C4O)N=C(CO)N5C)[nH]c3n2)CC1 | 40.2 µM (inactive) | > 100 µM (inactive) | > 100 µM (inactive) | 33.5 µM (inactive) | > 100 µM (inactive) |  | 41.4 µM (inactive) | > 100 µM (inactive) | 74.3 µM (inactive) | > 100 µM (inactive) | > 100 µM (inactive) | > 100 µM (inactive) |  | 57.5 µM (inactive) | > 100 µM (inactive) | 33.3 µM (inactive) | 55 µM (inactive) |
| O=C(O)c1cccc2c1/C(=N/Nc1ccccc1)CC2 |  | > 100 µM (inactive) |  | > 100 µM (inactive) | > 100 µM (inactive) | 66.8 µM (inactive) | > 100 µM (inactive) | 17.2 µM (inactive) | > 100 µM (inactive) | 26.1 µM (inactive) | > 100 µM (inactive) | 19.9 µM (inactive) | > 100 µM (inactive) |  | > 100 µM (inactive) |  | > 100 µM (inactive) |
| CCOc1ccc(NC(=S)N/C=C(/C(C)=O)C(=O)Nc2ccccc2C)cc1 | > 100 µM (inactive) | > 100 µM (inactive) | > 100 µM (inactive) | > 100 µM (inactive) | > 100 µM (inactive) | > 100 µM (inactive) | > 100 µM (inactive) | > 100 µM (inactive) | > 100 µM (inactive) | > 100 µM (inactive) | > 100 µM (inactive) | > 100 µM (inactive) |  | > 100 µM (inactive) | > 100 µM (inactive) | > 100 µM (inactive) |  |
| CC(=O)c1ccccc1NP(=O)(c1ccccc1)c1ccccc1 | 33.2 µM (inactive) | > 100 µM (inactive) | 56.9 µM (inactive) | 70.3 µM (inactive) | 47.1 µM (inactive) | 54.1 µM (inactive) | 96.6 µM (inactive) | 74.6 µM (inactive) | 74.5 µM (inactive) | 30.8 µM (inactive) | > 100 µM (inactive) |  | 31.4 µM (inactive) | > 100 µM (inactive) | > 100 µM (inactive) | 35.2 µM (inactive) |  |
| O=C1NN=C2C=C(c3ccc(Cl)cc3)CC(c3cccc(Br)c3)C12 (configuration not stated) | 42 µM (inactive) | > 100 µM (inactive) | 37.4 µM (inactive) | > 100 µM (inactive) | > 100 µM (inactive) | 84.5 µM (inactive) | 59.2 µM (inactive) | 91.4 µM (inactive) | 68.5 µM (inactive) | 23.4 µM (inactive) | > 100 µM (inactive) | 73.6 µM (inactive) |  | 21.2 µM (inactive) | 41.8 µM (inactive) | 87.3 µM (inactive) | 2.74 µM (inactive) |
| COc1cc(OC)c(C2c3cc4c(cc3OC(N3CCCC3)C2C)OCO4)c(OC)c1 (configuration not stated) |  | 18.5 µM (inactive) | 19.7 µM (inactive) | 12.1 µM (inactive) | 10.3 µM (inactive) | 18.7 µM (inactive) |  | 8.97 µM (inactive) | 8.49 µM (inactive) |  | 16.5 µM (inactive) |  |  | 15 µM (inactive) | 13 µM (inactive) | 16.6 µM (inactive) |  |
| CCCCCC(C(O)C#N)C(O)(C(F)(F)F)C(F)(F)F (configuration not stated) | > 10 µM (inactive) | > 10 µM (inactive) | > 10 µM (inactive) | > 10 µM (inactive) | > 10 µM (inactive) |  | > 10 µM (inactive) | > 10 µM (inactive) | > 10 µM (inactive) | > 10 µM (inactive) | > 10 µM (inactive) |  |  | > 10 µM (inactive) | > 10 µM (inactive) | > 10 µM (inactive) | > 10 µM (inactive) |
| N/C(S)=N/N=C/c1cc(CN2CCOCC2)c(N)cn1 | 48.2 µM (inactive) | 60.3 µM (inactive) |  | 27.5 µM (inactive) | 50.2 µM (inactive) | 84.3 µM (inactive) | 56.8 µM (inactive) | 36 µM (inactive) | 23.6 µM (inactive) | 45.7 µM (inactive) | 30.3 µM (inactive) | 12.7 µM (inactive) | 37 µM (inactive) | 47.1 µM (inactive) | 28.6 µM (inactive) | 42.4 µM (inactive) |  |
| CC(=O)Oc1cccc2c1C(=O)CCCC2 | > 100 µM (inactive) | > 100 µM (inactive) | > 100 µM (inactive) | > 100 µM (inactive) | > 100 µM (inactive) | > 100 µM (inactive) | > 100 µM (inactive) | > 100 µM (inactive) | > 100 µM (inactive) | > 100 µM (inactive) | > 100 µM (inactive) | > 100 µM (inactive) | > 100 µM (inactive) | > 100 µM (inactive) | > 100 µM (inactive) | > 100 µM (inactive) |  |
| CC1=CC(O)(c2ccccc2)C(N2CCOCC2)N1O (configuration not stated) |  | > 100 µM (inactive) | > 100 µM (inactive) | > 100 µM (inactive) | > 100 µM (inactive) | 81.1 µM (inactive) | > 100 µM (inactive) | > 100 µM (inactive) | > 100 µM (inactive) | > 100 µM (inactive) | > 100 µM (inactive) | > 100 µM (inactive) |  | > 100 µM (inactive) |  |  |  |
| O=c1oc2ccc([N+](=O)[O-])cc2c(Nc2ccc3c(c2)Oc2ccccc2O3)c1[N+](=O)[O-] | 21.3 µM (inactive) | 38 µM (inactive) | 32.1 µM (inactive) | 25.4 µM (inactive) | 35.2 µM (inactive) | 21.3 µM (inactive) | 18.9 µM (inactive) | 43.6 µM (inactive) | 48.1 µM (inactive) | 28.8 µM (inactive) | 38.9 µM (inactive) | 32.4 µM (inactive) |  | 28.6 µM (inactive) | 59.7 µM (inactive) | 25.6 µM (inactive) | 19.2 µM (inactive) |
| CN(C)c1ccc(/C=C/C(=O)CC(=O)/C=C/c2ccc(N(C)C)cc2)cc1 | > 100 µM (inactive) | > 100 µM (inactive) | > 100 µM (inactive) | > 100 µM (inactive) | > 100 µM (inactive) | > 100 µM (inactive) | > 100 µM (inactive) | > 100 µM (inactive) | > 100 µM (inactive) | > 100 µM (inactive) | > 100 µM (inactive) | > 100 µM (inactive) |  | > 100 µM (inactive) | > 100 µM (inactive) | 56.4 µM (inactive) |  |
| CSCCC(NCc1c(O)ccc2ccc(=O)oc12)C(=O)O (configuration not stated) | > 100 µM (inactive) | > 100 µM (inactive) | > 100 µM (inactive) | > 100 µM (inactive) | > 100 µM (inactive) | > 100 µM (inactive) | > 100 µM (inactive) | > 100 µM (inactive) | > 100 µM (inactive) | > 100 µM (inactive) | > 100 µM (inactive) | > 100 µM (inactive) |  | > 100 µM (inactive) | > 100 µM (inactive) | > 100 µM (inactive) | > 100 µM (inactive) |
| CCOP(=O)(/C=C/n1cnc2c(=O)n(C(C)=O)c(N)nc21)OCC | > 100 µM (inactive) | > 100 µM (inactive) | > 100 µM (inactive) | > 100 µM (inactive) | > 100 µM (inactive) | > 100 µM (inactive) | > 100 µM (inactive) | > 100 µM (inactive) | > 100 µM (inactive) | > 100 µM (inactive) | > 100 µM (inactive) | 70.3 µM (inactive) | > 100 µM (inactive) | > 100 µM (inactive) | > 100 µM (inactive) | > 100 µM (inactive) |  |
